{"source": "patent US20260285850A1", "about": "“SUBSTITUTED OXAZOLIDINONES AND IMIDAZOLINONES AS HERBICIDES” (FMC CORPORATION, priority 2023, published 2026)", "assay_type_in_all_cases": "in vivo", "key": {"[1]": {"test_system": "sedge, umbrella (small-flower umbrella sedge, Cyperus difformis)", "experiment": "Test B flooded paddy test, visual plant response rating 0-100", "conditions": "250 g ai/ha, Flood, applied to paddy water, evaluated after 13 days", "procedure,_shortened": "(§1)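 Visual evaluation after 13 days. Water-applied treatment, 3 cm flood depth held constant, plants at 2-leaf stage at treatment.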"}, "[2]": {"test_system": "ducksalad (Heteranthera limosa)", "experiment": "Test B flooded paddy test, visual plant response rating 0-100", "conditions": "250 g ai/ha, Flood, applied to paddy water, evaluated after 13 days", "procedure,_shortened": "as §1"}, "[3]": {"test_system": "rice (Oryza sativa)", "experiment": "Test B flooded paddy test, visual plant response rating 0-100", "conditions": "250 g ai/ha, Flood, applied to paddy water, evaluated after 13 days", "procedure,_shortened": "as §1"}, "[4]": {"test_system": "barnyardgrass (Echinochloa crusgalli)", "experiment": "Test B flooded paddy test, visual plant response rating 0-100", "conditions": "250 g ai/ha, Flood, applied to paddy water, evaluated after 13 days", "procedure,_shortened": "as §1"}, "[5]": {"test_system": "palmer (palmer amaranth, palmer pigweed, Amaranthus palmeri)", "experiment": "Test A postemergence application, visual injury rating 0-100", "procedure,_shortened": "(§2)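 Compound in a non-phytotoxic, surfactant-containing solvent is applied either as a directed soil spray before seedlings emerge or onto emerged plants 2-10 cm tall; pots hold a loam-sand blend. Plants grow 10 days under greenhouse conditions and are rated by eye against untreated controls (0 no effect, 100 complete control).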"}, "[6]": {"test_system": "galium (catchweed bedstraw, Galium aparine)", "experiment": "Test A postemergence application, visual injury rating 0-100", "procedure,_shortened": "as §2"}, "[7]": {"test_system": "green foxtail (Setaria viridis)", "experiment": "Test A postemergence application, visual injury rating 0-100", "procedure,_shortened": "as §2"}, "[8]": {"test_system": "soybean (Glycine max)", "experiment": "Test A postemergence application, visual injury rating 0-100", "procedure,_shortened": "as §2"}, "[9]": {"test_system": "wheat (Triticum aestivum)", "experiment": "Test A postemergence application, visual injury rating 0-100", "procedure,_shortened": "as §2"}, "[10]": {"test_system": "corn (Zea mays)", "experiment": "Test A postemergence application, visual injury rating 0-100", "procedure,_shortened": "as §2"}, "[11]": {"test_system": "horseweed (Erigeron canadensis)", "experiment": "Test A postemergence application, visual injury rating 0-100", "procedure,_shortened": "as §2"}, "[12]": {"test_system": "ragweed (common ragweed, Ambrosia artemisiifolia)", "experiment": "Test A postemergence application, visual injury rating 0-100", "procedure,_shortened": "as §2"}, "[13]": {"test_system": "barnyardgrass (Echinochloa crus-galli)", "experiment": "Test A postemergence application, visual injury rating 0-100", "procedure,_shortened": "as §2"}, "[14]": {"test_system": "oat, wild (wild oat, Avena fatua)", "experiment": "Test A postemergence application, visual injury rating 0-100", "procedure,_shortened": "as §2"}, "[15]": {"test_system": "ryegrass, Italian (italian ryegrass, Lolium multiflorum)", "experiment": "Test A postemergence application, visual injury rating 0-100", "procedure,_shortened": "as §2"}, "[16]": {"test_system": "blackgrass (Alopecurus myosuroides)", "experiment": "Test A postemergence application, visual injury rating 0-100", "procedure,_shortened": "as §2"}, "[17]": {"test_system": "kochia (Bassia scoparia)", "experiment": "Test A postemergence application, visual injury rating 0-100", "procedure,_shortened": "as §2"}, "[18]": {"test_system": "palmer (palmer amaranth, palmer pigweed, Amaranthus palmeri)", "experiment": "Test A preemergence soil spray, visual injury rating 0-100", "conditions": "10 days", "procedure,_shortened": "as §2"}, "[19]": {"test_system": "green foxtail (Setaria viridis)", "experiment": "Test A preemergence soil spray, visual injury rating 0-100", "conditions": "10 days", "procedure,_shortened": "as §2"}, "[20]": {"test_system": "soybean (Glycine max)", "experiment": "Test A preemergence soil spray, visual injury rating 0-100", "conditions": "10 days", "procedure,_shortened": "as §2"}, "[21]": {"test_system": "wheat (Triticum aestivum)", "experiment": "Test A preemergence soil spray, visual injury rating 0-100", "conditions": "10 days", "procedure,_shortened": "as §2"}, "[22]": {"test_system": "corn (Zea mays)", "experiment": "Test A preemergence soil spray, visual injury rating 0-100", "conditions": "10 days", "procedure,_shortened": "as §2"}, "[23]": {"test_system": "ragweed (common ragweed, Ambrosia artemisiifolia)", "experiment": "Test A preemergence soil spray, visual injury rating 0-100", "conditions": "10 days", "procedure,_shortened": "as §2"}, "[24]": {"test_system": "barnyardgrass (Echinochloa crus-galli)", "experiment": "Test A preemergence soil spray, visual injury rating 0-100", "conditions": "10 days", "procedure,_shortened": "as §2"}, "[25]": {"test_system": "oat, wild (wild oat, Avena fatua)", "experiment": "Test A preemergence soil spray, visual injury rating 0-100", "conditions": "10 days", "procedure,_shortened": "as §2"}, "[26]": {"test_system": "ryegrass, Italian (italian ryegrass, Lolium multiflorum)", "experiment": "Test A preemergence soil spray, visual injury rating 0-100", "conditions": "10 days", "procedure,_shortened": "as §2"}, "[27]": {"test_system": "blackgrass (Alopecurus myosuroides)", "experiment": "Test A preemergence soil spray, visual injury rating 0-100", "conditions": "10 days", "procedure,_shortened": "as §2"}, "[28]": {"test_system": "kochia (Bassia scoparia)", "experiment": "Test A preemergence soil spray, visual injury rating 0-100", "conditions": "10 days", "procedure,_shortened": "as §2"}, "[29]": {"conditions": "62 g ai/ha, postemergence, 10 days, 0 = no effect, 100 = complete control"}, "[30]": {"conditions": "Postemergence, 16 g ai/ha, greenhouse 10 days, 0 no effect, 100 complete control"}, "[31]": {"conditions": "62 g ai/ha, 0 = no effect, 100 = complete control"}}, "data": [{"smiles": "COC(=O)C1CC(NC(=O)C2(C)CN(c3cc(F)cc(F)c3)C(=O)O2)C1", "note": "(stereo not shown) [Compound 118, methyl 3-[[3-(3,5-difluorophenyl)-5-methyl-2-oxo-oxazolidine-5-carbonyl]amino]cyclobutanecarboxylate]", "values": [{"measurement": "Plant response rating, Sedge, Umbrella (0 to 100 scale, 0 is no effect and 100 is complete control)", "setting": "[1]", "value": 0}, {"measurement": "Plant response rating, Ducksalad (0 to 100 scale, 0 is no effect and 100 is complete control)", "setting": "[2]", "value": 0}, {"measurement": "Plant response rating, Rice (0 to 100 scale, 0 is no effect and 100 is complete control)", "setting": "[3]", "value": 0}, {"measurement": "Plant response rating, Barnyardgrass (0 to 100 scale, 0 is no effect and 100 is complete control)", "setting": "[4]", "value": 0}, {"measurement": "Pigweed, Palmer plant response rating (0-100)", "setting": "[5]; [29]", "value": 70}, {"measurement": "Pigweed, Palmer plant response rating (0 to 100 scale)", "setting": "[5]; [30]", "value": 20}, {"measurement": "Galium plant response rating (0-100)", "setting": "[6]; [29]", "value": 60}, {"measurement": "Galium plant response rating (0 to 100 scale)", "setting": "[6]; [30]", "value": 50}, {"measurement": "Foxtail, Green plant response rating (0-100)", "setting": "[7]; [29]", "value": 90}, {"measurement": "Foxtail, Green plant response rating (0 to 100 scale)", "setting": "[7]; [30]", "value": 90}, {"measurement": "Soybean plant response rating (0-100)", "setting": "[8]; [29]", "value": 60}, {"measurement": "Soybean plant response rating (0 to 100 scale)", "setting": "[8]; [30]", "value": 60}, {"measurement": "Wheat plant response rating (0-100)", "setting": "[9]; [29]", "value": 90}, {"measurement": "Wheat plant response rating (0 to 100 scale)", "setting": "[9]; [30]", "value": 80}, {"measurement": "Corn plant response rating (0-100)", "setting": "[10]; [29]", "value": 100}, {"measurement": "Corn plant response rating (0 to 100 scale)", "setting": "[10]; [30]", "value": 90}, {"measurement": "Horseweed plant response rating (0-100)", "setting": "[11]; [29]", "value": 0}, {"measurement": "Horseweed plant response rating (0 to 100 scale)", "setting": "[11]; [30]", "value": 0}, {"measurement": "Ragweed plant response rating (0-100)", "setting": "[12]; [29]", "value": 50}, {"measurement": "Ragweed plant response rating (0 to 100 scale)", "setting": "[12]; [30]", "value": 30}, {"measurement": "Barnyardgrass plant response rating (0-100)", "setting": "[13]; [29]", "value": 100}, {"measurement": "Barnyardgrass plant response rating (0 to 100 scale)", "setting": "[13]; [30]", "value": 50}, {"measurement": "Oat, Wild plant response rating (0-100)", "setting": "[14]; [29]", "value": 90}, {"measurement": "Oat, Wild plant response rating (0 to 100 scale)", "setting": "[14]; [30]", "value": 30}, {"measurement": "Ryegrass, Italian plant response rating (0-100)", "setting": "[15]; [29]", "value": 80}, {"measurement": "Ryegrass, Italian plant response rating (0 to 100 scale)", "setting": "[15]; [30]", "value": 20}, {"measurement": "Blackgrass plant response rating (0-100)", "setting": "[16]; [29]", "value": 100}, {"measurement": "Blackgrass plant response rating (0 to 100 scale)", "setting": "[16]; [30]", "value": 90}, {"measurement": "Kochia plant response rating (0-100)", "setting": "[17]; [29]", "value": 70}, {"measurement": "Kochia plant response rating (0 to 100 scale)", "setting": "[17]; [30]", "value": 30}, {"measurement": "Pigweed, Palmer plant response rating", "setting": "[18]; 16 g ai/ha, 0 to 100 scale", "value": 20}, {"measurement": "Pigweed, Palmer plant response rating (0-100)", "setting": "[18]; [31]", "value": 50}, {"measurement": "Foxtail, Green plant response rating", "setting": "[19]; 16 g ai/ha, 0 to 100 scale", "value": 60}, {"measurement": "Foxtail, Green plant response rating (0-100)", "setting": "[19]; [31]", "value": 90}, {"measurement": "Soybean plant response rating", "setting": "[20]; 16 g ai/ha, 0 to 100 scale", "value": 0}, {"measurement": "Soybean plant response rating (0-100)", "setting": "[20]; [31]", "value": 30}, {"measurement": "Wheat plant response rating", "setting": "[21]; 16 g ai/ha, 0 to 100 scale", "value": 20}, {"measurement": "Wheat plant response rating (0-100)", "setting": "[21]; [31]", "value": 80}, {"measurement": "Corn plant response rating", "setting": "[22]; 16 g ai/ha, 0 to 100 scale", "value": 30}, {"measurement": "Corn plant response rating (0-100)", "setting": "[22]; [31]", "value": 90}, {"measurement": "Ragweed plant response rating", "setting": "[23]; 16 g ai/ha, 0 to 100 scale", "value": 0}, {"measurement": "Ragweed plant response rating (0-100)", "setting": "[23]; [31]", "value": 0}, {"measurement": "Barnyardgrass plant response rating", "setting": "[24]; 16 g ai/ha, 0 to 100 scale", "value": 10}, {"measurement": "Barnyardgrass plant response rating (0-100)", "setting": "[24]; [31]", "value": 80}, {"measurement": "Oat, Wild plant response rating", "setting": "[25]; 16 g ai/ha, 0 to 100 scale", "value": 90}, {"measurement": "Oat, Wild plant response rating (0-100)", "setting": "[25]; [31]", "value": 90}, {"measurement": "Ryegrass, Italian plant response rating", "setting": "[26]; 16 g ai/ha, 0 to 100 scale", "value": 20}, {"measurement": "Ryegrass, Italian plant response rating (0-100)", "setting": "[26]; [31]", "value": 80}, {"measurement": "Blackgrass plant response rating", "setting": "[27]; 16 g ai/ha, 0 to 100 scale", "value": 30}, {"measurement": "Blackgrass plant response rating (0-100)", "setting": "[27]; [31]", "value": 90}, {"measurement": "Kochia plant response rating", "setting": "[28]; 16 g ai/ha, 0 to 100 scale", "value": 0}, {"measurement": "Kochia plant response rating (0-100)", "setting": "[28]; [31]", "value": 60}]}]}
